# Measurements published in PubChem BioAssay AID2060887 (Molecular Pharmacology Branch, DTP, NCI, 2025).
# Test system: 782815-120-R-J1-PDC complex spheroid viability
# Test: Anticancer human tumor 782815-120-R-J1-PDC patient-derived colon adenocarcinoma cell line growth inhibition [RAS]
# Conditions: for viability, T/C: stronger effect = lower value
# Outline: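 Tumour cells grown as complex spheroids with HUVEC endothelial cells and mesenchymal stem cells, treated with RAS pathway inhibitor combinations. Each agent spans half-log steps from near clinical Cmax, or 10 microM where Cmax is unknown.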
# 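Further: spheroids exposed to compounds for 7 days before reading.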
# 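Wherever viability, T/C is given: 100% = DMSO vehicle control viability.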
smiles,measurement,setting,value
Nc1ccn(C2OC(CO)C(O)C2(F)F)c(=O)n1 (stereo unspecified) + CCn1c(-c2cc(N3CCN(C)CC3)cnc2C(C)OC)c2c3cc(ccc31)-c1csc(n1)CC(NC(=O)C1CC1C)C(=O)N1CCCC(N1)C(=O)OCC(C)(C)C2,IC50,"curve of first compound, second compound 0.000949 µM",0.0207 µM
same,IC50,"curve of first compound, second compound 0.003 µM",0.0127 µM
same,IC50,"curve of first compound, second compound 0.00949 µM",< 0.00316 µM
same,IC50,"curve of first compound, second compound 0.03 µM",< 0.00316 µM
same,IC50,"curve of first compound, second compound 0.0949 µM",< 0.00316 µM
same,IC50,"curve of first compound, second compound 0.3 µM",< 0.00316 µM
same,"viability, T/C","second compound 0.000949 µM, first compound 0.00316 µM",74%
same,"viability, T/C","second compound 0.000949 µM, first compound 0.01 µM",53.4%
same,"viability, T/C","second compound 0.000949 µM, first compound 0.0316 µM",48.6%
same,"viability, T/C","second compound 0.000949 µM, first compound 0.1 µM",35.9%
same,"viability, T/C","second compound 0.000949 µM, first compound 0.316 µM",28.4%
same,"viability, T/C","second compound 0.000949 µM, first compound 1 µM",23.6%
same,"viability, T/C","second compound 0.003 µM, first compound 0.00316 µM",60.9%
same,"viability, T/C","second compound 0.003 µM, first compound 0.01 µM",51.7%
same,"viability, T/C","second compound 0.003 µM, first compound 0.0316 µM",40%
same,"viability, T/C","second compound 0.003 µM, first compound 0.1 µM",25%
same,"viability, T/C","second compound 0.003 µM, first compound 0.316 µM",25.5%
same,"viability, T/C","second compound 0.003 µM, first compound 1 µM",23.7%
same,"viability, T/C","second compound 0.00949 µM, first compound 0.00316 µM",30.8%
same,"viability, T/C","second compound 0.00949 µM, first compound 0.01 µM",33.3%
same,"viability, T/C","second compound 0.00949 µM, first compound 0.0316 µM",23.1%
same,"viability, T/C","second compound 0.00949 µM, first compound 0.1 µM",23%
same,"viability, T/C","second compound 0.00949 µM, first compound 0.316 µM",17.1%
same,"viability, T/C","second compound 0.00949 µM, first compound 1 µM",18%
same,"viability, T/C","second compound 0.03 µM, first compound 0.00316 µM",20.1%
same,"viability, T/C","second compound 0.03 µM, first compound 0.01 µM",21.2%
same,"viability, T/C","second compound 0.03 µM, first compound 0.0316 µM",15.7%
same,"viability, T/C","second compound 0.03 µM, first compound 0.1 µM",13.3%
same,"viability, T/C","second compound 0.03 µM, first compound 0.316 µM",13.7%
same,"viability, T/C","second compound 0.03 µM, first compound 1 µM",14.1%
same,"viability, T/C","second compound 0.0949 µM, first compound 0.00316 µM",15.7%
same,"viability, T/C","second compound 0.0949 µM, first compound 0.01 µM",15.9%
same,"viability, T/C","second compound 0.0949 µM, first compound 0.0316 µM",13.3%
same,"viability, T/C","second compound 0.0949 µM, first compound 0.1 µM",11.6%
same,"viability, T/C","second compound 0.0949 µM, first compound 0.316 µM",13.2%
same,"viability, T/C","second compound 0.0949 µM, first compound 1 µM",10.7%
same,"viability, T/C","second compound 0.3 µM, first compound 0.00316 µM",15.7%
same,"viability, T/C","second compound 0.3 µM, first compound 0.01 µM",16.1%
same,"viability, T/C","second compound 0.3 µM, first compound 0.0316 µM",16.1%
same,"viability, T/C","second compound 0.3 µM, first compound 0.1 µM",13.2%
same,"viability, T/C","second compound 0.3 µM, first compound 0.316 µM",12.6%
same,"viability, T/C","second compound 0.3 µM, first compound 1 µM",10.2%
CCC(CC)c1cc(NC2CCC(N)C2)n2nccc2n1 (stereo unspecified),"viability, T/C",compound 0.0316 µM,103% [middle of 4 runs]
same,"viability, T/C",compound 0.1 µM,93.2% [middle of 4 runs]
same,"viability, T/C",compound 0.316 µM,103% [middle of 4 runs]
same,"viability, T/C",compound 1 µM,99.6% [middle of 4 runs]
same,"viability, T/C",compound 3.16 µM,34.1% [middle of 4 runs]
same,"viability, T/C",compound 10 µM,1.98% [middle of 4 runs]
same,IC50,curve of compound,2.34 µM [middle of 4 runs]
CC1(O)CCCC1n1c(=O)c(C(F)F)cc2cnc(NC3CCN(S(C)(=O)=O)CC3)nc21 (stereo unspecified) + C#Cc1c(F)ccc2cc(O)cc(-c3ncc4c(N5CC6CCC(C5)N6)nc(OCC56CCCN5CC(F)C6)nc4c3F)c12,IC50,"curve of first compound, second compound 0.0316 µM",6.05 µM
same,IC50,"curve of first compound, second compound 0.1 µM",4.76 µM
same,IC50,"curve of first compound, second compound 0.316 µM",5.35 µM
same,IC50,"curve of first compound, second compound 1 µM",5.29 µM
same,IC50,"curve of first compound, second compound 3.16 µM",5.79 µM
same,IC50,"curve of first compound, second compound 10 µM",4.9 µM
same,"viability, T/C","second compound 0.0316 µM, first compound 0.0316 µM",73.7%
same,"viability, T/C","second compound 0.0316 µM, first compound 0.1 µM",74.5%
same,"viability, T/C","second compound 0.0316 µM, first compound 0.316 µM",65.7%
same,"viability, T/C","second compound 0.0316 µM, first compound 1 µM",76%
same,"viability, T/C","second compound 0.0316 µM, first compound 3.16 µM",68.8%
same,"viability, T/C","second compound 0.0316 µM, first compound 10 µM",35.1%
same,"viability, T/C","second compound 0.1 µM, first compound 0.0316 µM",83.1%
same,"viability, T/C","second compound 0.1 µM, first compound 0.1 µM",75.2%
same,"viability, T/C","second compound 0.1 µM, first compound 0.316 µM",68.8%
same,"viability, T/C","second compound 0.1 µM, first compound 1 µM",62.8%
same,"viability, T/C","second compound 0.1 µM, first compound 3.16 µM",66.4%
same,"viability, T/C","second compound 0.1 µM, first compound 10 µM",32.6%
same,"viability, T/C","second compound 0.316 µM, first compound 0.0316 µM",78.6%
same,"viability, T/C","second compound 0.316 µM, first compound 0.1 µM",79.7%
same,"viability, T/C","second compound 0.316 µM, first compound 0.316 µM",69.2%
same,"viability, T/C","second compound 0.316 µM, first compound 1 µM",69.2%
same,"viability, T/C","second compound 0.316 µM, first compound 3.16 µM",65.6%
same,"viability, T/C","second compound 0.316 µM, first compound 10 µM",34.4%
same,"viability, T/C","second compound 1 µM, first compound 0.0316 µM",88.5%
same,"viability, T/C","second compound 1 µM, first compound 0.1 µM",77.7%
same,"viability, T/C","second compound 1 µM, first compound 0.316 µM",75.4%
same,"viability, T/C","second compound 1 µM, first compound 1 µM",69.5%
same,"viability, T/C","second compound 1 µM, first compound 3.16 µM",70.7%
same,"viability, T/C","second compound 1 µM, first compound 10 µM",28.6%
same,"viability, T/C","second compound 3.16 µM, first compound 0.0316 µM",77.5%
same,"viability, T/C","second compound 3.16 µM, first compound 0.1 µM",67.4%
same,"viability, T/C","second compound 3.16 µM, first compound 0.316 µM",68.7%
same,"viability, T/C","second compound 3.16 µM, first compound 1 µM",71%
same,"viability, T/C","second compound 3.16 µM, first compound 3.16 µM",79.1%
same,"viability, T/C","second compound 3.16 µM, first compound 10 µM",29.5%
same,"viability, T/C","second compound 10 µM, first compound 0.0316 µM",70.7%
same,"viability, T/C","second compound 10 µM, first compound 0.1 µM",65.8%
same,"viability, T/C","second compound 10 µM, first compound 0.316 µM",65.5%
same,"viability, T/C","second compound 10 µM, first compound 1 µM",67.3%
same,"viability, T/C","second compound 10 µM, first compound 3.16 µM",74.3%
same,"viability, T/C","second compound 10 µM, first compound 10 µM",19.5%
